Experimental data from US20110212885A1, “OPHTHALMIC AND CONTACT LENS SOLUTIONS CONTAINING PEPTIDES AS PRESERVATIVE” (priority 2003, published 2011).
Where two headings read alike, the source gives them in different places. Non-standard residues stand in square brackets, D forms with d. Residues, ends and D or L forms follow the SMILES beside them. No end group written: not given here.

Tests used:
Assay type in all cases: cell-based
[1] = tested on: Candida albicans (ATCC 10231); settings: 1 hour exposure; for biocidal effect on C. albicans (in words): 100 ug/mL in water; for average cfu/mL: C. albicans, peptide 100 ug/mL in water
Experimental: (§1) Peptides were tested using a conventional Disinfection Efficacy antimicrobial assay (ISO 14729), commonly used in evaluating biocidal efficacy of preservatives for use in contact lens care solutions. Briefly, a known concentration of organisms are inoculated into the test solution, and allowed to incubate for a given amount of time, after which they are neutralized to inactivate the preservative. Samples are serially diluted and plated in duplicate onto petri plates onto which growth medium is poured. The plates are incubated at 35° C. (bacteria) or 25° C. (yeast and molds) for 48 hours. The average number of colony forming units is determined on countable plates (the dilution at which between 30 to 300 cfu/plate are observed, except when colonies are observed only on the −1 dilution plates). The log reduction resulting from exposure to the test solution is calculated based on the growth of positive controls plated simultaneously. Recovery controls, to confirm that the test solution is neutralized, and viability controls are also plated.
Method: Candida albicans (ATCC 10231) stock cultures were incubated and prepared to result in cell suspensions containing between 10^7 and 10^8 cfu/mL. The Disinfection Efficacy test, as described above, was used, with the following modification: Since the standard Dey-Engley broth used to neutralize preservatives was not necessarily expected to neutralize the peptide, 0.1% sodium laurel sulfate (SLS) was added to the neutralization solution. Controls confirmed that this was effective in neutralizing the peptide test solution.
(§2) Method: The Disinfection Efficacy test was used with the following organisms: Staphylococcus aureus (ATCC 6538), Pseudomonas aeruginosa (ATCC 9027), Serratia marcesens (ATCC 13880), Candida albicans (ATCC 10231), and Fusarium solani (ATCC 36031). The peptides were diluted in water at a concentration of 100 ug/mL (adjusted for purity). Organism cultures were prepared to result in an inoculum concentration between 10^7 and 10^8 cfu/mL. The test solutions were inoculated for a 1 hour and a 3 hour exposure period, neutralized with DEB with 0.1% SLS added, and plated in duplicate.

[2] = tested on: Staphylococcus aureus (ATCC 6538); settings: for biocidal effect on S. aureus (in words): 100 ug/mL in water; for average cfu/mL: S. aureus; for concentration giving complete kill of S. aureus: tested 100 to 1 ug/mL in water
Experimental: as §1, §2
(§3) Method: The Disinfection Efficacy test was used as in experiment 2 using Staphylococcus aureus and Pseudomonas aeruginosa. The peptides were diluted in water at concentrations of 100, 33.3, 10, 3.33, and 1 ug/mL. The test solutions were inoculated for 1 hour, neutralized, and plated in duplicate.

[3] = tested on: Pseudomonas aeruginosa (ATCC 9027); settings: for biocidal effect on P. aeruginosa (in words): 100 ug/mL in water; for average cfu/mL: P. aeruginosa; for lowest concentration giving complete kill of P. aeruginosa: Experiment 3, tested 100 to 1 ug/mL in water
Experimental: as §1, §2, §3

[4] = tested on: Fusarium solani (ATCC 36031); settings: 1 hour exposure; for biocidal effect on F. solani (in words): 100 ug/mL in water; for average cfu/mL: F. solani, peptide 100 ug/mL in water
Experimental: as §1, §2

[5] = tested on: Serratia marcesens (ATCC 13880); settings: 1 hour exposure; for biocidal effect on S. marcescens (in words): 100 ug/mL in water; for average cfu/mL: S. marcescens, peptide 100 ug/mL in water
Experimental: as §1, §2

[6] = peptide 100 ug/mL in water, 1 hour exposure
[7] = T = 1 hr, Conc. 1 μg/mL in water
[8] = T = 1 hr, Conc. 3.33 μg/mL in water
[9] = T = 1 hr, Conc. 10 μg/mL in water
[10] = T = 1 hr, Conc. 33 μg/mL in water
[11] = T = 1 hr, Conc. 100 μg/mL in water

C[C@@H](N)C(=O)N[C@H](CCCCN)C(=O)N[C@H](CCCNC(=N)N)C(=O)N[C@H](Cc1c[nH]cn1)C(=O)N[C@H](Cc1c[nH]cn1)C(=O)NCC(=O)N[C@H](Cc1ccc(O)cc1)C(=O)N[C@H](CCCCN)C(=O)N[C@H](CCCNC(=N)N)C(=O)N[C@H](CCCCN)C(=O)N[C@H](Cc1ccccc1)C(=O)N[C@H](Cc1c[nH]cn1)C(N)=O [P113D] (H-[dA][dK][dR][dH][dH]G[dY][dK][dR][dK][dF][dH]-NH2; N-terminus and C-terminus assumed)
biocidal effect on C. albicans (in words) [1]: effective | average cfu/mL [1]: 3.30E+03 cfu/mL | biocidal effect on S. aureus (in words) ([2]; 1 hour exposure): no effect | average cfu/mL [2, 6]: 4.70E+05 cfu/mL | biocidal effect on P. aeruginosa (in words) ([3]; 1 hour exposure): effective | average cfu/mL [3, 6]: 2.00E+01 cfu/mL | biocidal effect on F. solani (in words) [4]: effective | average cfu/mL [4]: 6.40E+03 cfu/mL | biocidal effect on S. marcescens (in words) [5]: no effect | average cfu/mL [5]: 2.80E+05 cfu/mL

AKRHHGYKRKFH-NH2 [P-113]
biocidal effect on C. albicans (in words) [1]: effective | average cfu/mL [1]: 5.51E+03 cfu/mL | biocidal effect on S. aureus (in words) ([2]; 1 hour exposure): no effect | effectiveness against S. aureus (in words) ([2]; Experiment 3, 1 hour exposure, 100 to 1 ug/mL in water): not effective | average cfu/mL [2, 7]: 5.95E+04 cfu/mL | average cfu/mL [2, 8]: 1.44E+05 cfu/mL | average cfu/mL [2, 9]: 2.02E+05 cfu/mL | average cfu/mL [2, 10]: 3.40E+05 cfu/mL | average cfu/mL [2, 11]: 3.80E+05 cfu/mL | average cfu/mL [2, 6]: 6.10E+05 cfu/mL | biocidal effect on P. aeruginosa (in words) ([3]; 1 hour exposure): effective | lowest concentration giving complete kill of P. aeruginosa ([3]; 1 hour exposure): 3.33 µg/mL | average cfu/mL [3, 7]: 3.90E+02 cfu/mL | average cfu/mL [3, 8]: 5.00E+00 cfu/mL | average cfu/mL [3, 9]: 1.50E+01 cfu/mL | average cfu/mL [3, 10]: 0.00E+00 cfu/mL | average cfu/mL [3, 11]: 0.00E+00 cfu/mL | average cfu/mL [3, 6]: 6.00E+01 cfu/mL | biocidal effect on F. solani (in words) [4]: effective | average cfu/mL [4]: 6.00E+03 cfu/mL | biocidal effect on S. marcescens (in words) [5]: no effect | average cfu/mL [5]: 4.00E+05 cfu/mL

FAKKFAKKFKKFAKKFAKFAFAF [D2A21]
average cfu/mL [1]: 0.00E+00 cfu/mL | concentration giving complete kill of S. aureus ([2]; Experiment 3, 1 hour exposure): 3.33 µg/mL | average cfu/mL [2, 7]: 1.12E+03 cfu/mL | average cfu/mL [2, 8]: 0.00E+00 cfu/mL | average cfu/mL [2, 9]: 1.00E+01 cfu/mL | average cfu/mL [2, 10]: 0.00E+00 cfu/mL | average cfu/mL [2, 11]: 0.00E+00 cfu/mL | average cfu/mL [2, 6]: 0.00E+00 cfu/mL | lowest concentration giving complete kill of P. aeruginosa ([3]; 1 hour exposure): 1 µg/mL | average cfu/mL [3, 7]: 0.00E+00 cfu/mL | average cfu/mL [3, 8]: 0.00E+00 cfu/mL | average cfu/mL [3, 9]: 0.00E+00 cfu/mL | average cfu/mL [3, 10]: 0.00E+00 cfu/mL | average cfu/mL [3, 11]: 0.00E+00 cfu/mL | average cfu/mL [3, 6]: 0.00E+00 cfu/mL | average cfu/mL [4]: 0.00E+00 cfu/mL | average cfu/mL [5]: 0.00E+00 cfu/mL

FKLRAKIKVRLRAKIKL [D4E1]
average cfu/mL [1]: 0.00E+00 cfu/mL | concentration giving complete kill of S. aureus ([2]; Experiment 3, 1 hour exposure): 1 µg/mL | average cfu/mL [2, 7]: 5.00E+00 cfu/mL | average cfu/mL [2, 8]: 0.00E+00 cfu/mL | average cfu/mL [2, 9]: 0.00E+00 cfu/mL | average cfu/mL [2, 10]: 0.00E+00 cfu/mL | average cfu/mL [2, 11]: 0.00E+00 cfu/mL | average cfu/mL [2, 6]: 0.00E+00 cfu/mL | lowest concentration giving complete kill of P. aeruginosa ([3]; 1 hour exposure): 1 µg/mL | average cfu/mL [3, 7]: 1.00E+01 cfu/mL | average cfu/mL [3, 8]: 0.00E+00 cfu/mL | average cfu/mL [3, 9]: 0.00E+00 cfu/mL | average cfu/mL [3, 10]: 5.00E+00 cfu/mL | average cfu/mL [3, 11]: 0.00E+00 cfu/mL | average cfu/mL [3, 6]: 0.00E+00 cfu/mL | average cfu/mL [4]: 0.00E+00 cfu/mL | average cfu/mL [5]: 0.00E+00 cfu/mL
